“And” between values parts separate entries of the source, which are not always exact repeats. Identical values can stand only once. “Also recorded” adds a separate entry of the source. Like-named read-outs stand apart in the source and are kept apart here.
Columns and labels:
[1] = tested on: VirF-driven transcriptional activation; parameters: method as in PMID 24549153; details: VirF-driven β-galactosidase reporter; read-out: Shigella-Based Reporter Assay IC50; cited from earlier work
[2] = tested on: spread of an active S. flexneri infection; details: cited from earlier work
[3] = tested on: mammalian cells; parameters: method as in PMID 24549153; details: at the tested concentrations; cited from earlier work
[4] = tested on: S. flexneri; parameters: method as in PMID 24549153; details: at the tested concentrations; cited from earlier work
[5] = tested on: 10 bp pvirB FID DNA probes; test: Fluorescence intercalator displacement (FID) assay, 10 bp probes; type: binding, Shigella flexneri; details: for 10 bp pvirB 51–60 FID probe %fluorescence: ethidium bromide 7.5 μM, probe 1.5 μM
Procedure: The FID protocol was based on previously published studies and was conducted in triplicate. For the assay, black, half-area, 96-well plates (Corning, Twerksbury, MA) were used. First, 70 μL of ethidium bromide in Tris Buffer (0.1 M Tris HCl, 0.1 M NaCl, pH 8.0) was added to all wells. The concentration of ethidium bromide was contingent upon the length of the DNA probe that was used. For the 60 bp pvirB FID DNA probe, the final ethidium bromide concentration used was 45 μM; whereas, for the 10 bp pvirB (51–60) FID DNA probe, the final ethidium bromide concentration used was 7.5 μM. Next, 10 μL of either pvirB FID DNA probes (10 or 60 bp) in TE/NaCl buffer (see above) or 10 μL of TE/NaCl buffer (background fluorescence control) were added to the appropriate wells of the plate. The final concentrations of the pvirB FID DNA probes were 1.5 μM. Lastly, 20 μL of test compound (either 19615 or Berenil) in 10% DMSO Tris Buffer or 20 μL of 10% DMSO Tris Buffer (100% fluorescence control) were added to the appropriate wells of the plate. […] After the addition of all reagents, the plates were protected from light and allowed to equilibrate for 30 min on an orbital shaker at room temperature. Following equilibration, fluorescence was measured […] using a Biotek Synergy H1 plate reader (Winooski, VT). The average background fluorescence was subtracted from all data generated and %fluorescence was calculated for all wells containing compound via the following formula: %fluorescence=Ftest/F100%^*100 where: Ftest = the average fluorescence value obtained for each test compound and F100% = the average fluorescence value obtained for each 100% fluorescence control.

[6] = tested on: E. coli RNA polymerase (RNAP) binding to the lac promoter (plac); test: Control EMSA of E. coli RNA polymerase binding to the lac promoter; details: compound 100 μM; RNAP 2.7 μM; 5'Cy5-plac probe 0.25 μM
Procedure: [picture] Figure C: EMSA depicting E. coli RNA Polymerase (RNAP) Binding to the lac Promoter (plac) in the Presence of 19615. […] For the EMSA a hybrid 2% acrylamide, 1% agarose gel was used which was made with and ran in a 1X TGE buffer (25 mM Tris base, 190 mM glycine, 1 mM EDTA, pH 8.3). The sequence of the 5’Cy5-plac DNA probe is as follows: 5’-gtgccctggtctgg[…]-3’ (lowercase text represents LUEGO sequence, uppercase text represents lac promoter sequence).

[7] = molecular target: T1, MalE-VirF binding to the 5'Cy5-pvirB DNA probe (Shigella flexneri, UniProt P0A2T1); test: Electrophoretic mobility shift assay (EMSA) of MalE-VirF binding to pvirB DNA probe; details: compound 100 μM; MalE-VirF 1 μM; probe 0.25 μM
T1 construct: pMALvirF was constructed by cloning the virF gene into the vector, pMAL-c2x; made in house; host or cells: Shigella flexneri BS103 (pBAD202-MALvirF); initial preparations in E. coli KS1000 (pMALvirF)
Procedure: Reactions for the EMSAs were incubated in a 37°C water bath for 15 minutes. Reactions (15 μL total volume) were composed of 6 μL pvirB EMSA DNA probe (0.25 μM), 6 μL of either MalE-VirF (1.0 μM) or native gel loading buffer (Tris-HCl 0.3 M, 50% glycerol, 0.05% bromophenol blue, pH 7.0), 1 μL of salmon sperm DNA (0.7 mg/mL, Invitrogen), 0.5 μL BSA (0.07 mg/mL), and 1.5 μL of either DMSO or compound (100 μM). A 6% native polyacrylamide gel (29:1 acrylamide to bis-acrylamide ratio) was made with 0.25X TBE buffer (22 mM Tris Base, 22 mM boric acid, 0.5 mM EDTA, pH 9.5) for the EMSA. The gel was electrophoresed for 1 hour at 150 V in 0.25X TBE buffer at 4°C before samples were loaded. After the reaction solutions (12 μL) were loaded onto the gel, the gel was electrophoresed for an additional hour at 150 V and 4°C. The gel was then visualized using FluorChem M gel imager (Protein Simple, Santa Clara, CA) with a 607 nm excitation wavelength and a 710 nm emission filter.

T1 sequence (P0A2T1 whole entry, looked up): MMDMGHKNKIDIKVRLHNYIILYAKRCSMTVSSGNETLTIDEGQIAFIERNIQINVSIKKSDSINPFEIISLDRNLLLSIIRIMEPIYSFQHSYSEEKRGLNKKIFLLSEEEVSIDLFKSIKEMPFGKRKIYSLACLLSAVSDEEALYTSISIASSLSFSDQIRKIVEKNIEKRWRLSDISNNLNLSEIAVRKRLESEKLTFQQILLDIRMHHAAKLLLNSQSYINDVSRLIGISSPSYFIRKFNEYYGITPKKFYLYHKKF
E. coli RNA polymerase (RNAP) binding to the lac promoter (plac), sequence (P0A7Z4 whole entry): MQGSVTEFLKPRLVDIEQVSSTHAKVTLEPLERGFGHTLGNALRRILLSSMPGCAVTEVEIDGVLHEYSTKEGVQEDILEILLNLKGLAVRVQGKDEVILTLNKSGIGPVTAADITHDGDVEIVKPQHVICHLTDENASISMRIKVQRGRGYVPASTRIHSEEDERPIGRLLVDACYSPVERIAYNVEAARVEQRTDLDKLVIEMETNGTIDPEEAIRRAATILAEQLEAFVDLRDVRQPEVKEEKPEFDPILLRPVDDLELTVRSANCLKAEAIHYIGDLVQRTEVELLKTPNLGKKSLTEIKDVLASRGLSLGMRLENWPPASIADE
E. coli RNA polymerase (RNAP) binding to the lac promoter (plac), sequence (P0A800 whole entry, further chain): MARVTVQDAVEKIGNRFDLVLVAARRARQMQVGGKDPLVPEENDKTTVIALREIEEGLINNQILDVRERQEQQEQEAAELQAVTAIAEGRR
E. coli RNA polymerase (RNAP) binding to the lac promoter (plac), sequence (P0A8T7 whole entry, further chain): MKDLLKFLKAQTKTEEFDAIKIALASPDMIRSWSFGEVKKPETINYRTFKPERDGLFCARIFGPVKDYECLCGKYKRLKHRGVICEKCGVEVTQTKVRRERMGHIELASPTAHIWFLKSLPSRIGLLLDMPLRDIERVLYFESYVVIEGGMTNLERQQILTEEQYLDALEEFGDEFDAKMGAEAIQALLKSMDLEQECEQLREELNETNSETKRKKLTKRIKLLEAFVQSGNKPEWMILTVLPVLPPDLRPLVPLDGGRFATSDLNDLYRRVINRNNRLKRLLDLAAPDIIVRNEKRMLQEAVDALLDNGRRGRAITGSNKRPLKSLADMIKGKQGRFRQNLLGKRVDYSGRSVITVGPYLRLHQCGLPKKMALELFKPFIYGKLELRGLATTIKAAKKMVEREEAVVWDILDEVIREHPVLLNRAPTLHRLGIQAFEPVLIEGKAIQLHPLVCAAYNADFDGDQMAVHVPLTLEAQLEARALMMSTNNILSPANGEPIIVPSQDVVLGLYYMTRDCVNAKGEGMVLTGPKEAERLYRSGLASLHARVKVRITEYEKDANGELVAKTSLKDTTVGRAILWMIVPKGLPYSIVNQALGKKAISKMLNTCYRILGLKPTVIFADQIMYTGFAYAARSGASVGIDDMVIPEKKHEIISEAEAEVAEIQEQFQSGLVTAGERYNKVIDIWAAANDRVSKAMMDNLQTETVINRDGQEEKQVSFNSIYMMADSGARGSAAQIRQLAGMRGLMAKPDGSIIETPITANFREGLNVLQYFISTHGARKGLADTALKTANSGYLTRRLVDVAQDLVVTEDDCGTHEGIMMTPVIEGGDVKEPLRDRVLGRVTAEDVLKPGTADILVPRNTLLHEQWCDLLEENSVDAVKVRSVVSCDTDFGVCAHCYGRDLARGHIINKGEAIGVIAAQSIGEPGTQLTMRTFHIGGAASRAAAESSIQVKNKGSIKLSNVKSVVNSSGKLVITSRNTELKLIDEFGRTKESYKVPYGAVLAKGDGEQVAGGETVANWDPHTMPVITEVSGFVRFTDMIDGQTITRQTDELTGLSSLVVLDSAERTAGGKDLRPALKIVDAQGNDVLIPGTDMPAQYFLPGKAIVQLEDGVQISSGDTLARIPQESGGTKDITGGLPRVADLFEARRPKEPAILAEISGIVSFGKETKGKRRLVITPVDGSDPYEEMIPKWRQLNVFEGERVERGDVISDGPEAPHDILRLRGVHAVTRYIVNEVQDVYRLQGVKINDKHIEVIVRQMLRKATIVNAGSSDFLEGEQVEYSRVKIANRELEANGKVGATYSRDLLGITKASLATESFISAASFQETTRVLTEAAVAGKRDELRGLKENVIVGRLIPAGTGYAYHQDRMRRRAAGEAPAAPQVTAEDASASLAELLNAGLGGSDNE
E. coli RNA polymerase (RNAP) binding to the lac promoter (plac), sequence (P00579 whole entry, further chain): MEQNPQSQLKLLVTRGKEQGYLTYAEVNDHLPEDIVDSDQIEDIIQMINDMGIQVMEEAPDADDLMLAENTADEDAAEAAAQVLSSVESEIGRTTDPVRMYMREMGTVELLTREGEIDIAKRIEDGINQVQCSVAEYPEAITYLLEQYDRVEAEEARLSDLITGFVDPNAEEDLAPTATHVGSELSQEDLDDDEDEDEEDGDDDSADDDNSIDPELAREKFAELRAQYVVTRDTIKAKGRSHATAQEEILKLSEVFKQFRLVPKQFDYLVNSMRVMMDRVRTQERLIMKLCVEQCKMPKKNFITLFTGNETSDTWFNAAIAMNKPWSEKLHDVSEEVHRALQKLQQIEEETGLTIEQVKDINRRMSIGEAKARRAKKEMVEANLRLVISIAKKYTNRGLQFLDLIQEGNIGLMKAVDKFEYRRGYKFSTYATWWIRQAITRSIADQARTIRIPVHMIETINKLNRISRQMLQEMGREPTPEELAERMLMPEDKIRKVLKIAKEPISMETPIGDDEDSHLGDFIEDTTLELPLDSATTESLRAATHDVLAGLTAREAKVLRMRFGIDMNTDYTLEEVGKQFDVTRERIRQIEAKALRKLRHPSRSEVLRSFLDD
E. coli RNA polymerase (RNAP) binding to the lac promoter (plac), sequence (P0A8V2 whole entry, further chain): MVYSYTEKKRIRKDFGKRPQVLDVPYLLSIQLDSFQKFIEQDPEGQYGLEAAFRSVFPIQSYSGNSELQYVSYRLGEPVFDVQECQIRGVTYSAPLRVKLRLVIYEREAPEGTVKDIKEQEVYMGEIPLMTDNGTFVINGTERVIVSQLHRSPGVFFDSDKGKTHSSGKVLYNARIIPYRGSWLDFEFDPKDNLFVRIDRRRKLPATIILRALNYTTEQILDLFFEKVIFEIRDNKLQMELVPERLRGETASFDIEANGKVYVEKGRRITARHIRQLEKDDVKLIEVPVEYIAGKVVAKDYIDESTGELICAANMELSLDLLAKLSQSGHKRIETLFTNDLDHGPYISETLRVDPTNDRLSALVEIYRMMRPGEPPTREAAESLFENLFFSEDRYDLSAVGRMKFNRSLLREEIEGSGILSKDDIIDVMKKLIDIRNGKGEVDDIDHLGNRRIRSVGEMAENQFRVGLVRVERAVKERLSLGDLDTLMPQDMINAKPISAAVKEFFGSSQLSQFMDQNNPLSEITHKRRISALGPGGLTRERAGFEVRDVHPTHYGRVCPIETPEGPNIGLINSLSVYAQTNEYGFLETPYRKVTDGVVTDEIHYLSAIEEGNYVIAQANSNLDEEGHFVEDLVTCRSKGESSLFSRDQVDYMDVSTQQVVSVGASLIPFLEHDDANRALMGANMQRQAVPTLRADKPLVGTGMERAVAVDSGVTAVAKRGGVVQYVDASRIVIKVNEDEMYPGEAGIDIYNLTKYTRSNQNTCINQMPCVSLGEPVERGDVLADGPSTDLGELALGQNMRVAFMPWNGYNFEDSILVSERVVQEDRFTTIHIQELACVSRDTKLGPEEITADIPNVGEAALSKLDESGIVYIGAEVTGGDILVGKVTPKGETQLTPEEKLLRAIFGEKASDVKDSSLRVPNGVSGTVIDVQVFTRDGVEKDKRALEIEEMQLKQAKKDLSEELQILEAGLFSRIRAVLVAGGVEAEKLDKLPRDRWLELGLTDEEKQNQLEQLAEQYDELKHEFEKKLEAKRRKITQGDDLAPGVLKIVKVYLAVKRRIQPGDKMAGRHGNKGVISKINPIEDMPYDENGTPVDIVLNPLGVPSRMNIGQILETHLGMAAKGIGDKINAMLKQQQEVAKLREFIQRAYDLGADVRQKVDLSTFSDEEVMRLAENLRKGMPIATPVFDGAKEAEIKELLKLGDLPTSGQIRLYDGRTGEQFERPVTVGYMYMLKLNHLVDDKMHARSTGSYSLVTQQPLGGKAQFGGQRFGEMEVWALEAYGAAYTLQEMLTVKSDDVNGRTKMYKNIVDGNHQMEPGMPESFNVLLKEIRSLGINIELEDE

SMILES: CN(C)CCOc1nc(-c2ccccc2)nc2c1oc1ccccc12 [compound 19615]
- IC50 [1]: 14 µM
- Inhibition of the spread of an active S. flexneri infection ([2]; at 6.25 μM): 75%
- Inhibition of the spread of an active S. flexneri infection ([2]; at concentrations at or below their IC50s in the reporter assay): approximately 75%
- Plaque Efficiency Assay IC75 ([2]; ref Emanuele et al. J. Antibiotics 67:379–386 (2014)): 6.25 µM
- Toxicity to mammalian cells [3]: not toxic
- Toxicity to S. flexneri [4]: not toxic
- %fluorescence, 10 bp fragment pvirB 21-30 ([5]; compound 2 μM, preliminary FID screen, 5'-AATAAAGATA-3'): 92% ± 1%
- %fluorescence, 10 bp fragment pvirB 31-40 ([5]; compound 2 μM, preliminary FID screen, 5'-AATTGCATCA-3'): 94% ± 2%
- %fluorescence, 10 bp fragment pvirB 1-10 ([5]; compound 2 μM, preliminary FID screen, 5'-AGAATATTAT-3'): 93% ± 6%
- %fluorescence, 10 bp fragment pvirB 41-50 ([5]; compound 2 μM, preliminary FID screen, 5'-ATCCAGCTAT-3'): 94% ± 1%
- %fluorescence, 10 bp fragment pvirB 51-60 ([5]; compound 2 μM, preliminary FID screen, 5'-TAAAATAGTA-3'): 92% and 92% ± 0%
- %fluorescence, 10 bp fragment pvirB 11-20 ([5]; compound 2 μM, preliminary FID screen, 5'-TCTTTTATCC-3'): 95% ± 3%
- 10 bp pvirB 51–60 FID probe %fluorescence ([5]; compound 12.5 μM): 97% ± 2%
- 10 bp pvirB 51–60 FID probe %fluorescence ([5]; compound 25 μM): 97% ± 3%
- 10 bp pvirB 51–60 FID probe %fluorescence ([5]; compound 50 μM): 97% ± 2%
- 10 bp pvirB 51–60 FID probe %fluorescence ([5]; compound 100 μM): 95% ± 1%
- Effect on RNAP binding to the lac promoter (EMSA) [6]: no effect on RNAP binding
- Effect on MalE-VirF binding to the pvirB DNA probe (EMSA) [7]: appeared to inhibit MalE-VirF binding; also recorded: dramatically reduced binding
